# Measurements from ChEMBL document CHEMBL3232949, “Rapid identification of Keap1-Nrf2 small-molecule inhibitors through structure-based virtual screening and hit-based substructure search” (J Med Chem, 2014).
# Activity calls are given as the source filed them. The calls are words filed in the database; no cut-off is given here.
# Experiments:
# [1] = biological target: T1, Nuclear factor erythroid 2-related factor 2 (Rattus norvegicus) (UniProt O54968); experiment: Activation of Nrf2 in rat PC12 cells assessed as increase of HO-1 mRNA level at 1 to 4 uM after 4.5 to 9 hrs by qRT-PCR analysis; format: cell-based; settings: PC-12
# T1 sequence (whole entry): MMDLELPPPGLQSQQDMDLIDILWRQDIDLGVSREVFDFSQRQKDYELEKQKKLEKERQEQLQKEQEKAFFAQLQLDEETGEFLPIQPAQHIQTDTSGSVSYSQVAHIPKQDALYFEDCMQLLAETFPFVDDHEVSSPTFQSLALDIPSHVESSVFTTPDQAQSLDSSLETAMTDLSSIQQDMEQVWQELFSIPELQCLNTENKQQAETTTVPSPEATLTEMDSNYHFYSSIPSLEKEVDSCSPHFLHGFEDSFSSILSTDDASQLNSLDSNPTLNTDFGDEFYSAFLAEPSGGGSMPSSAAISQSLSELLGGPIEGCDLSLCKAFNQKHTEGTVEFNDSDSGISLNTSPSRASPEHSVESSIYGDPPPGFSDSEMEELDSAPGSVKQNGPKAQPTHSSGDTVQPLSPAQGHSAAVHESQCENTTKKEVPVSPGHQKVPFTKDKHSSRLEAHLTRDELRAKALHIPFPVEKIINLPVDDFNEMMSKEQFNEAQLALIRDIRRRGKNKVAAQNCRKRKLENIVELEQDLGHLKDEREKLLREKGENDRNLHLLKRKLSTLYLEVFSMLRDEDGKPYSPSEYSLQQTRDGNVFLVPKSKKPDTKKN
# [2] = biological target: T1, Nuclear factor erythroid 2-related factor 2 (Rattus norvegicus); experiment: Activation of Nrf2 in rat PC12 cells assessed as increase of NQO-1 mRNA level at 1 to 4 uM after 4.5 to 9 hrs by qRT-PCR analysis; format: cell-based; settings: PC-12
# [3] = biological target: Kelch-like ECH-associated protein 1 (Homo sapiens) (UniProt Q14145)
# Kelch-like ECH-associated protein 1 (Homo sapiens), sequence (Q14145 whole entry): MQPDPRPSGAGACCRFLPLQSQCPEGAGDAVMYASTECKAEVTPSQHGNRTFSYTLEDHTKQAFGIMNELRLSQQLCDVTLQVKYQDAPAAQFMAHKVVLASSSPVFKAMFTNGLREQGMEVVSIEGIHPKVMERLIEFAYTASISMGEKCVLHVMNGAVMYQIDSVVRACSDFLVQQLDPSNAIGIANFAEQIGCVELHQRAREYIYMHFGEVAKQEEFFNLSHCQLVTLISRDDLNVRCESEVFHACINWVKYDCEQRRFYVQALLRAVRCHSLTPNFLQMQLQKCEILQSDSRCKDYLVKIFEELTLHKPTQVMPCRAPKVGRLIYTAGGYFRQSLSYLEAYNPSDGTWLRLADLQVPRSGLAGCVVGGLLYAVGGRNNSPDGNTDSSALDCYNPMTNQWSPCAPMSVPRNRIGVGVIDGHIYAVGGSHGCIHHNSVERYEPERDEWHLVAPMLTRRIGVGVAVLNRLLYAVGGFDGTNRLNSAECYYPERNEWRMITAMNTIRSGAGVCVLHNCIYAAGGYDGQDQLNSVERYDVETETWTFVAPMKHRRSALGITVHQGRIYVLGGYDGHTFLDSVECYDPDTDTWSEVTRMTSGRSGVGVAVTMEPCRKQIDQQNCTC
# Description: Binding affinity to kelch domain of Keap1 (unknown origin) assessed as change in melting temperature after 15 mins by differential scanning fluorimetry assay
# [4] = biological target: Keap1/Nrf2 (Homo sapiens, UniProt Q14145); experiment: Inhibition of Keap1-Nrf2 (unknown origin) interaction assessed as compound's equilibrium dissociation constant after 60 mins by fluorescence anisotropy assay; format: protein assay
# Keap1/Nrf2, sequence (Q16236 whole entry): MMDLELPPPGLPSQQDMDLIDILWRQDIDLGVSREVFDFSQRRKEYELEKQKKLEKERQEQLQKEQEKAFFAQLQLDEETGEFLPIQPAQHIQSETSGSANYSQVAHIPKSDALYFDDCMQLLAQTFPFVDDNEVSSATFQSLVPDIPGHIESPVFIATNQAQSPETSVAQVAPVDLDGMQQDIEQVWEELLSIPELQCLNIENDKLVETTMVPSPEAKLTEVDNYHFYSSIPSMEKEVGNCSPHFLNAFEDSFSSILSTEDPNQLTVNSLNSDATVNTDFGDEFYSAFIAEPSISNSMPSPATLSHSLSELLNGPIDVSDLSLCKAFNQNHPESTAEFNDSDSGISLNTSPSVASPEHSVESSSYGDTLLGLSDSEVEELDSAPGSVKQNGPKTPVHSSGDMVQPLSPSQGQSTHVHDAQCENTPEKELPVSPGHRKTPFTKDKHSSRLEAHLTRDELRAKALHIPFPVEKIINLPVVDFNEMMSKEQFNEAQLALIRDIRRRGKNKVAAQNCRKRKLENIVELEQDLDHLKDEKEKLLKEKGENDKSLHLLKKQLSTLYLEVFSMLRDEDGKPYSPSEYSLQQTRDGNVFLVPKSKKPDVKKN
# Keap1/Nrf2, sequence (Q14145 whole entry): as the sequence (Q14145 whole entry) above
# [5] = biological target: T1, Nuclear factor erythroid 2-related factor 2 (Rattus norvegicus); experiment: Activation of Nrf2 in rat PC12 cells assessed as increase of HO-1 mRNA level at 1 to 4 uM by qRT-PCR analysis; format: cell-based; settings: PC-12, TDE = time-dependent effect
# [6] = biological target: T1, Nuclear factor erythroid 2-related factor 2 (Rattus norvegicus); experiment: Activation of Nrf2 in rat PC12 cells assessed as increase of HO-1 mRNA level after 4.5 to 9 hrs by qRT-PCR analysis; format: cell-based; settings: PC-12
# [7] = biological target: T1, Nuclear factor erythroid 2-related factor 2 (Rattus norvegicus); experiment: Induction of nuclear translocation of Nrf2 in rat PC12 cells at 4 uM after 1.5 hrs by Western blot analysis; format: cell-based; settings: PC-12
# [8] = biological target: T1, Nuclear factor erythroid 2-related factor 2 (Rattus norvegicus); experiment: Induction of nuclear translocation of Nrf2 in rat PC12 cells at 4 uM after 4.5 hrs by Western blot analysis; format: cell-based; settings: PC-12
SMILES,Kd [4] [µM],also measured
COc1ccc(S(=O)(=O)Nc2ccc(NS(=O)(=O)c3ccc(OC)cc3)c3ccccc23)cc1,–,Activity [1]: inactive; Activity [2]: inactive; ΔTm [3]: 1 °C
CC(C)c1ccc(S(=O)(=O)Nc2cc(SCC(=O)O)c(O)c3ccccc23)cc1,6.4,–
Cc1oc2c(cc(NS(=O)(=O)c3ccc(Cl)cc3)c3ccccc32)c1C(=O)O,75.2,–
CC(C)c1ccc(S(=O)(=O)Nc2cc(Sc3nc[nH]n3)c(O)c3ccccc23)cc1,–,Activity [5]: tde; Activity [6]: Dose-dependent effect; Activity [7]: Active; Activity [8]: inactive
Cc1ccccc1NC(=O)CN1C(=O)S/C(=C\c2cccn2-c2cccc(C(=O)O)c2)C1=O,10.4,ΔTm [3]: 1 °C
Cc1ccc(S(=O)(=O)Nc2cc(Sc3cccc4cccnc34)c(O)c3ccccc23)cc1,> 100,–
Cc1ccc(/N=C2/S/C(=C\c3c(C)n(CC(=O)O)c4ccccc34)C(=O)N2C)cc1,35.4,–
CCOc1ccc(S(=O)(=O)Nc2cc(Sc3nc[nH]n3)c(O)c3ccccc23)cc1,3.1,ΔTm [3]: 4 °C
Cc1ccc(NC(=O)CN2C(=O)S/C(=C\c3cccn3C)C2=O)c(C)c1,> 100,–
CC(=O)Oc1c(SCC(=O)O)cc(NS(=O)(=O)c2ccc(F)cc2)c2ccccc12,> 100,–
O=C(O)CSc1cc(NS(=O)(=O)c2cccc3cccnc23)c2ccccc2c1O,18.9,–
Cc1ccc(S(=O)(=O)Nc2cc(SCC(=O)O)c(O)c3ccccc23)cc1,15.4,–
Cc1cc(C)c(S(=O)(=O)Nc2cc(SCC(=O)O)c(O)c3ccccc23)c(C)c1,4.2,–
O=C(O)CSc1cc(NS(=O)(=O)c2ccc(Br)cc2)c2ccccc2c1O,14.7,–
O=C1NN(c2cccc(Cl)c2)C(=O)/C1=C\c1ccc(-c2ccc(Br)cc2C(=O)O)o1,39.5,–
CN1C(=O)S/C(=C\c2cccn2-c2cccc(C(=O)O)c2)C1=O,> 100,–
CCOc1cc(/C=C2\N=C(c3ccccc3)OC2=O)cc(Br)c1OCC(=O)O,29.5,–
COc1ccc(NC(=O)CN2C(=O)S/C(=C\c3cccn3-c3ccc(C(=O)O)cc3)C2=O)cc1,23.8,–
Cc1ccc(S(=O)(=O)Nc2cc(Sc3nc4ccccc4s3)c(O)c3ccccc23)cc1,> 100,ΔTm [3]: 1 °C
COc1ccc(S(=O)(=O)Nc2cc(Sc3nc[nH]n3)c(O)c3ccccc23)cc1,6.8,–
Cc1cccc(NC(=O)CN2C(=O)S/C(=C\c3cccn3-c3cccc(C(=O)O)c3)C2=O)c1,68.2,–
Cc1ccc(NC(=O)CN2C(=O)S/C(=C\c3cccn3-c3cccc(C(=O)O)c3)C2=O)c(C)c1,47.6,–
Cc1cccc(C)c1NC(=O)CN1C(=O)S/C(=C\c2cccn2-c2cccc(C(=O)O)c2)C1=O,> 100,–
O=C1NN(c2cccc(F)c2)C(=O)/C1=C\c1ccc(-c2ccc(C(=O)O)cc2)o1,77.8,–
Cc1cc(C)c(S(=O)(=O)Nc2cc(Sc3nc[nH]n3)c(O)c3ccccc23)cc1C,3.6,–
Cc1ccc(S(=O)(=O)Nc2ccc(O)c(Sc3nc[nH]n3)c2)cc1,> 100,–
COc1ccc(S(=O)(=O)Nc2cc(Sc3ccccc3)c(O)c3ccccc23)cc1,> 100,–
Cc1cc(F)ccc1S(=O)(=O)Nc1cc(SCC(=O)O)c(O)c2ccccc12,12.2,–

SMILES,Kd [4] [µM],also measured
O=C(O)CSc1cc(NS(=O)(=O)c2ccc(Cl)cc2)c2ccccc2c1O,15.3,–
O=C1NN(c2ccccc2)C(=O)/C1=C\c1ccc(-c2ccc(C(=O)O)c(Cl)c2)o1,42.9,–
Cc1ccc(S(=O)(=O)Nc2cc(Sc3nc(C)cc(C)n3)c(O)c3ccccc23)cc1,> 100,–
O=S(=O)(Nc1cc(Sc2nc[nH]n2)c(O)c2ccccc12)c1ccc(Br)cc1,13.1,–
Cc1ccc(NC(=O)CN2C(=O)S/C(=C\c3cccn3-c3cccc(C(=O)O)c3)C2=O)cc1C,28.9,–
Cc1cccc(N2NC(=O)/C(=C/c3ccc(-c4ccc(S(N)(=O)=O)cc4)o3)C2=O)c1,> 100,–
O=C1NN(c2ccc(Br)cc2)C(=O)/C1=C\c1ccc(-c2ccccc2)o1,> 100,–
Cc1ccc(N2NC(=O)/C(=C/c3ccc(-c4ccc(S(=O)(=O)Nc5nccs5)cc4)o3)C2=O)cc1,> 100,–
O=C(O)CSc1cc(NS(=O)(=O)c2ccc(F)cc2)c2ccccc2c1O,30.2,–
O=S(=O)(Nc1cc(Sc2nc[nH]n2)c(O)c2ccccc12)c1ccccc1,61.2,–
CC(C)(C)c1ccc(S(=O)(=O)Nc2cc(SCc3ccco3)c(O)c3ccccc23)cc1,> 100,–
O=C(CN1C(=O)S/C(=C\c2cccn2-c2cccc(C(=O)O)c2)C1=O)Nc1ccc(Cl)cc1,> 100,–
COc1ccc(-n2cccc2/C=C2\SC(=O)N(CC(=O)Nc3ccc(C)cc3)C2=O)cc1,> 100,–
O=C(CN1C(=O)S/C(=C\c2cccn2-c2ccc(O)cc2)C1=O)Nc1ccccc1F,> 100,–
O=C(O)CSc1cc(NS(=O)(=O)c2cccs2)c2ccccc2c1O,36.6,–
O=S(=O)(Nc1cc(Sc2nc[nH]n2)c(O)c2ccccc12)c1ccc2ccccc2c1,3.6,–
O=S(=O)(Nc1cc(Sc2nnnn2-c2ccccc2)c(O)c2ccccc12)c1ccccc1,55.5,–
Cc1cc(C)c(S(=O)(=O)Nc2cc3sc(=O)oc3c3ccccc23)cc1C,> 100,ΔTm [3]: 1 °C
Cc1cc(C)c(S(=O)(=O)Nc2cc(Cl)c(O)c(Sc3nc[nH]n3)c2)cc1C,20.9,–
O=C1NN(c2cccc(Cl)c2)C(=O)/C1=C\c1ccc(-c2cccc(C(=O)O)c2)o1,49.2,–
COc1ccc(-n2cccc2/C=C2\SC(=O)N(CC(=O)Nc3cccc(C)c3)C2=O)cc1,> 100,–
NC(=O)c1ccc(-c2ccc(/C=C3/C(=O)NN(c4ccc(F)cc4)C3=O)o2)cc1,> 100,–
O=C(O)CSc1cc(NS(=O)(=O)c2ccc3ccccc3c2)c2ccccc2c1O,7.8,–
O=C1NN(c2cccc(Cl)c2)C(=O)/C1=C\c1ccc(-c2ccc(C(=O)O)c(Cl)c2)o1,15.2,ΔTm [3]: 2 °C
COC(=O)c1ccc(N2NC(=O)/C(=C/c3ccc(-c4ccc(S(N)(=O)=O)cc4)o3)C2=O)cc1,> 100,–
Cc1ccc(S(=O)(=O)Nc2cc(SCc3ccccc3)c(O)c3ccccc23)cc1,> 100,–
O=C(CN1C(=O)S/C(=C\c2cccn2-c2cccc(C(=O)O)c2)C1=O)Nc1ccc(F)cc1,> 100,–
